Legend:
Experiment in all cases: ≥ marks a high value that may be exact or a test limit, other limits are often not marked, values filed in µg/mL are converted to µM
[1] = tested on: Escherichia coli K-12 W3110
[2] = tested on: Aeromonas hydrophila IAM 12460
[3] = tested on: Micrococcus luteus IAM 1056
[4] = tested on: Bacillus subtilis IAM 1071
Bacillus cereus IAM 1110 = tested on: Bacillus cereus IAM 1110
[5] = tested on: Proteus vulgaris IAM 12542
[6] = tested on: Streptococcus sanguinis ATCC 49295
[7] = tested on: Streptococcus mutans comD
[8] = tested on: Streptococcus mutans GS-5
[9] = tested on: Streptococcus gordonii DL1
[10] = tested on: Streptococcus sanguinis NY101
[11] = tested on: Streptococcus mutans UA159
[12] = tested on: Streptococcus gordonii ATCC 10558
[13] = tested on: Streptococcus mutans ATCC 25175
Streptococcus mutans T8 = tested on: Streptococcus mutans T8

MIC [1] [µM]	MIC [2] [µM]	MIC [3] [µM]	MIC [4] [µM]	MIC (Bacillus cereus IAM 1110) [µM]	MIC [5] [µM]	MIC [6] [µM]	MIC [7] [µM]	MIC [8] [µM]	MIC [9] [µM]	MIC [10] [µM]	MIC [11] [µM]	MIC [12] [µM]	MIC [13] [µM]	MIC (Streptococcus mutans T8) [µM]	SMILES
4.24	2.12	0.0665	2.12	4.24	2.12										CC[C@H](C)[C@@H]1NC(=O)CNC(=O)[C@@H]2CSSC[C@@H]3NC(=O)[C@H](C(C)C)NC(=O)[C@H](CCCN=C(N)N)NC(=O)[C@H](CCCCN)NC(=O)[C@H](CCCCN)NC(=O)[C@H](CC(N)=O)NC(=O)[C@H](CSSC[C@H](NC(=O)[C@@H](NC(=O)[C@@H](N)Cc4ccccc4)[C@@H](C)O)C(=O)N[C@@H](CC(=O)O)C(=O)N[C@@H](C(C)C)C(=O)N[C@@H](CC(C)C)C(=O)N[C@@H](CO)C(=O)N[C@@H](C(C)C)C(=O)N[C@@H](CCC(=O)O)C(=O)N[C@@H](C)C(=O)N[C@@H](CCCCN)C(=O)NCC(=O)N[C@@H](C(C)C)C(=O)N[C@@H](CCCCN)C(=O)N[C@@H](CC(C)C)C(=O)N[C@@H](CC(N)=O)C(=O)N[C@@H](Cc4cnc[nH]4)C(=O)N[C@@H](C)C(=O)N[C@@H](C)C(=O)N2)NC(=O)[C@H](Cc2ccc(O)cc2)NC(=O)CNC(=O)CNC(=O)[C@H]([C@@H](C)O)NC(=O)[C@H](CCCN=C(N)N)NC(=O)[C@H](CCCN=C(N)N)NC(=O)[C@H](CCCN=C(N)N)NC(=O)[C@H](Cc2ccccc2)NC(=O)[C@H](CC(C)C)NC(=O)[C@H](CSSC[C@@H](C(=O)N[C@@H](CCCN=C(N)N)C(=O)O)NC(=O)[C@H]([C@@H](C)CC)NC3=O)NC(=O)[C@H](Cc2cnc[nH]2)NC1=O [FTCDVLSVEAKGVKLNHAACGIHCLFRRRTGGYCNKKRVCICR]
						≥ 233	≥ 60	≥ 233	≥ 60	≥ 60	≥ 233	≥ 233	≥ 60	≥ 60	CC(C)C[C@H](NC(=O)[C@H](CCCN=C(N)N)NC(=O)[C@H](Cc1ccccc1)NC(=O)[C@H](Cc1ccccc1)NC(=O)[C@@H](N)[C@@H](C)O)C(=O)N[C@@H](Cc1ccccc1)C(=O)N[C@@H](CC(N)=O)C(=O)N[C@@H](CCCN=C(N)N)C(=O)O [TFFRLFNR]
